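Each compound was tested at five concentrations against cells in 96-well plates for 48 hours. GI50 is the concentration that inhibits growth by half.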 Activity calls are given as the source filed them. Rule as the data show it: active = GI50 up to about 1.1 µM and inactive = higher.
What was measured:
Assay in all cases: DTP human tumour cell line panel, 48 h
Hs-578T = test system: Hs-578T
LOX IMVI = test system: LOX IMVI
M14 = test system: M14
RXF 393 = test system: RXF 393
OVCAR-4 = test system: OVCAR-4
EKVX = test system: EKVX
HOP-92 = test system: HOP-92
HCC 2998 = test system: HCC 2998
SR = test system: SR
NCI-H522 = test system: NCI-H522
DU-145 = test system: DU-145
NCI-H226 = test system: NCI-H226
SF-295 = test system: SF-295
SW-620 = test system: SW-620
U-251 = test system: U-251
NCI-H460 = test system: NCI-H460
NCI/ADR-RES = test system: NCI/ADR-RES
OVCAR-3 = test system: OVCAR-3
OVCAR-5 = test system: OVCAR-5
A549 = test system: A549
K562 = test system: K562
SN12C = test system: SN12C
SNB-75 = test system: SNB-75
TK-10 = test system: TK-10
SK-MEL-5 = test system: SK-MEL-5
SK-MEL-2 = test system: SK-MEL-2
CCRF-CEM = test system: CCRF-CEM
SNB-19 = test system: SNB-19
HL-60 = test system: HL-60
UACC-257 = test system: UACC-257
MCF7 = test system: MCF7
HCT-116 = test system: HCT-116
COLO 205 = test system: COLO 205
MDA-N = test system: MDA-N
RPMI-8226 = test system: RPMI-8226
MDA-MB-435 = test system: MDA-MB-435
ACHN = test system: ACHN
NCI-H23 = test system: NCI-H23
BT-549 = test system: BT-549
MDA-MB-231 = test system: MDA-MB-231
MOLT-4 = test system: MOLT-4
786-0 = test system: 786-0
HCT-15 = test system: HCT-15
SK-MEL-28 = test system: SK-MEL-28
PC-3 = test system: PC-3
HOP-62 = test system: HOP-62
A498 = test system: A498
Malme-3M = test system: Malme-3M
UACC-62 = test system: UACC-62
SK-OV-3 = test system: SK-OV-3
KM12 = test system: KM12
HT-29 = test system: HT-29
OVCAR-8 = test system: OVCAR-8
T47D = test system: T47D
CAKI-1 = test system: CAKI-1
SF-268 = test system: SF-268
SF-539 = test system: SF-539
UO-31 = test system: UO-31
IGROV-1 = test system: IGROV-1
DLD-1 = test system: DLD-1
M19-MEL = test system: M19-MEL
LXFL 529 = test system: LXFL 529
DMS-114 = test system: DMS-114
SNB-78 = test system: SNB-78
KM-20L2 = test system: KM-20L2

COC(=O)CC1(O)C=CC(=O)C=C1 [JACARANONE]
GI50 (Hs-578T): 8.55 µM (inactive)
GI50 (LOX IMVI): 2.51 µM (inactive)
GI50 (M14): 4.18 µM (inactive)
GI50 (RXF 393): 3.36 µM (inactive)
GI50 (OVCAR-4): 3.82 µM (inactive)
GI50 (EKVX): 4.02 µM (inactive)
GI50 (HOP-92): 8.07 µM (inactive)
GI50 (HCC 2998): 15.3 µM (inactive)
GI50 (SR): 2.47 µM (inactive)
GI50 (NCI-H522): 1.39 µM (inactive)
GI50 (DU-145): 5.06 µM (inactive)
GI50 (NCI-H226): 8.61 µM (inactive)
GI50 (SF-295): 5.13 µM (inactive)
GI50 (SW-620): 4.76 µM (inactive)
GI50 (U-251): 3.52 µM (inactive)
GI50 (NCI-H460): 2.2 µM (inactive)
GI50 (NCI/ADR-RES): 3.63 µM (inactive)
GI50 (OVCAR-3): 3.91 µM (inactive)
GI50 (OVCAR-5): 8.99 µM (inactive)
GI50 (A549): 8.67 µM (inactive)
GI50 (K562): 3.76 µM (inactive)
GI50 (SN12C): 9.31 µM (inactive)
GI50 (SNB-75): 5.43 µM (inactive)
GI50 (TK-10): 4.81 µM (inactive)
GI50 (SK-MEL-5): 3.29 µM (inactive)
GI50 (SK-MEL-2): 4.63 µM (inactive)
GI50 (CCRF-CEM): 1.99 µM (inactive)
GI50 (SNB-19): 5.48 µM (inactive)
GI50 (HL-60): 2.59 µM (inactive)
GI50 (UACC-257): 2.65 µM (inactive)
GI50 (MCF7): 2.97 µM (inactive)
GI50 (HCT-116): 9.77 µM (inactive)
GI50 (COLO 205): 4.68 µM (inactive)
GI50 (MDA-N): 6.35 µM (inactive)
GI50 (RPMI-8226): 5.45 µM (inactive)
GI50 (MDA-MB-435): 6.47 µM (inactive)
GI50 (ACHN): 2.99 µM (inactive)
GI50 (NCI-H23): 2.96 µM (inactive)
GI50 (BT-549): 5.02 µM (inactive)
GI50 (MDA-MB-231): 2.66 µM (inactive)
GI50 (MOLT-4): 1.05 µM (active)
GI50 (786-0): 2.88 µM (inactive)
GI50 (HCT-15): 3.01 µM
GI50 (SK-MEL-28): 2.38 µM (inactive)
GI50 (PC-3): 2.57 µM (inactive)
GI50 (HOP-62): 6.76 µM (inactive)
GI50 (A498): 7.16 µM (inactive)
GI50 (Malme-3M): 2.81 µM (inactive)
GI50 (UACC-62): 2.13 µM (inactive)
GI50 (SK-OV-3): 14.1 µM (inactive)
GI50 (KM12): 1.74 µM (inactive)
GI50 (HT-29): 6.24 µM (inactive)
GI50 (OVCAR-8): 3.4 µM (inactive)
GI50 (T47D): 5.42 µM (inactive)
GI50 (CAKI-1): 3.83 µM (inactive)
GI50 (SF-268): 3.18 µM (inactive)
GI50 (SF-539): 3.53 µM (inactive)
GI50 (UO-31): 2.96 µM (inactive)
GI50 (IGROV-1): 2.02 µM (inactive)

Cc1ccc(NC(=O)CCC/C(CC(=O)c2ccc(Br)cc2)=N/NC(=O)CC#N)cc1
GI50 (LOX IMVI): > 100 µM (inactive)
GI50 (M14): > 100 µM (inactive)
GI50 (RXF 393): > 100 µM (inactive)
GI50 (OVCAR-4): > 100 µM (inactive)
GI50 (EKVX): > 100 µM (inactive)
GI50 (DLD-1): > 100 µM (inactive)
GI50 (HOP-92): > 100 µM (inactive)
GI50 (HCC 2998): > 100 µM (inactive)
GI50 (M19-MEL): > 100 µM (inactive)
GI50 (NCI-H226): > 100 µM (inactive)
GI50 (SF-295): > 100 µM (inactive)
GI50 (SW-620): > 100 µM (inactive)
GI50 (U-251): > 100 µM (inactive)
GI50 (NCI-H460): > 100 µM (inactive)
GI50 (OVCAR-3): > 100 µM (inactive)
GI50 (OVCAR-5): > 100 µM (inactive)
GI50 (A549): > 100 µM (inactive)
GI50 (LXFL 529): > 100 µM (inactive)
GI50 (SN12C): > 100 µM (inactive)
GI50 (SNB-75): > 100 µM (inactive)
GI50 (TK-10): > 100 µM (inactive)
GI50 (SK-MEL-5): > 100 µM (inactive)
GI50 (SK-MEL-2): > 100 µM (inactive)
GI50 (CCRF-CEM): > 100 µM (inactive)
GI50 (SNB-19): > 100 µM (inactive)
GI50 (HL-60): > 100 µM (inactive)
GI50 (UACC-257): > 100 µM (inactive)
GI50 (HCT-116): > 100 µM (inactive)
GI50 (DMS-114): > 100 µM (inactive)
GI50 (SNB-78): > 100 µM (inactive)
GI50 (COLO 205): > 100 µM (inactive)
GI50 (KM-20L2): > 100 µM (inactive)
GI50 (RPMI-8226): > 100 µM (inactive)
GI50 (ACHN): > 100 µM (inactive)
GI50 (NCI-H23): > 100 µM (inactive)
GI50 (MOLT-4): > 100 µM (inactive)
GI50 (786-0): > 100 µM (inactive)
GI50 (SK-MEL-28): > 100 µM (inactive)
GI50 (HOP-62): > 100 µM (inactive)
GI50 (Malme-3M): > 100 µM (inactive)
GI50 (UACC-62): > 100 µM (inactive)
GI50 (KM12): > 100 µM (inactive)
GI50 (HT-29): > 100 µM (inactive)
GI50 (OVCAR-8): > 100 µM (inactive)
GI50 (SF-268): > 100 µM (inactive)
GI50 (UO-31): > 100 µM (inactive)
GI50 (IGROV-1): > 100 µM (inactive)

From ChEMBL document CHEMBL1201862, “PubChem BioAssay data set” (2004)
